What was measured:
[1] = system: TOV21G (ovarian cancer) cells; test: In vitro cell proliferation inhibition assay (CellTiter-Glo), TOV21G; type: cell-based, human; conditions: 120 hours
Protocol: (§1) By detecting the effect of compound on cell activity in vitro in the tumor cell lines TOV21G (ovarian cancer) and MV4-11 (leukemia), the effect of compound inhibiting cell proliferation was studied in this assay.
(§2) TOV21G cells and MV4-11 cells were purchased from American Type Culture Collection (ATCC).
TOV21G cells were cultured in MCDB105/M199 medium (containing 15% […]), and used for testing when the cell confluence reaches 85% or more. Each well of a 96-well culture plate was inoculated with about 1000 cells, cultured for 24 hours, and treated with different concentrations (0-10 μM) of compound solution to be tested in triplex. Blank wells (contains medium only) and control wells (seeded cells was not treated with drug) were set. Cells were cultured for 120 hours, 40 μL Cell Titer-Glo solution (Promega, #G7573) were added to each well, incubated with shaking for 20 min in the dark, 100 μL solution was transferred from each well to a 96-well white plate (Corning, #3917), and the luminescence value was read by Biotek Synergy H1 multifunctional microplate reader.

ATR kinase = ATR kinase (Homo sapiens (Human), UniProt Q13535); test: ATR kinase activity assay (time-resolved fluorescence, p53 substrate phosphorylation); type: biochemical
Protocol: Biotinylated protein derived from p53 (Eurofins, art. No.: 14-952) was phosphorylated with ATR kinase. The amount of phosphorylated protein was determined by time-resolved fluorescence in this assay. The amount of phosphorylated protein was detected by anti-p53-phospho-(serine 15)-K-specific antibody (Cisbio, art. No.: 61GSTDLA) and d2 labeled anti-GST antibody (Cisbio, art. No. 61P08KAE). Before the experiment, the following working solution was prepared as required: 1× reaction buffer (20 mM HEPES PH8.0, 1% glycerol, 0.01% Brij-35), dilution buffer (20 mM HEPES PH8.0, 1% glycerol, 0.01% Brij-35, 5 mM DTT and 1% BSA), stop solution (20 mM HEPES PH8.0, 1% glycerol, 0.01% Brij-35, 250 mM EDTA), detection buffer (50 mM HEPES pH7.0, 150 mM NaCl, 267 mM KF, 0.1% sodium cholate, 0.01% Tween-20, 0.0125% sodium azide). The reagents used above are purchased from Sigma or Invitrogen, except for those where the manufacturer was mentioned.
Operations are as follows:
4× gradient dilution of compound solutions was prepared with 1× reaction buffer to obtain 9 compound solutions of different concentrations, and 2.5 μL 4× gradient dilution of compound solutions was added to a 384-well analysis plate (784075, Greiner). 4× p53 substrate working solution (40 nM) was prepared with 1× reaction buffer, and 2.5 μL 4× p53 substrate working solution was added to the 384-well analysis plate. 4×ATR/ATRIP working solution (12.8 ng/μL) was prepared with dilution buffer, and 2.5 μL 4×pATR/ATRIP working solution was added to the 384-well analysis plate. 4×ATP working solution (2 mM) was prepared with deionized water, 2.5 μL 4×ATP working solution was added to the 384-well analysis plate, and incubated at room temperature in dark for 30 minutes. 5 μL stop solution was added to the 384 analysis plate. Finally, 5 μL test mixture (0.084 ng/μL Anti-phospho-p53(ser15)-K and 5 ng/μL Anti-GST-d2) was added to the 384 well analysis plate, incubated overnight at room temperature, and the fluorescence signal was detected with ENVISION (Perkinelmer) instrument (excitation wavelength: 320 nm, emission wavelength: 665 nm and 615 nm). The inhibition rate in each well was calculated by the fluorescence intensity value of each hole: ER (Emission Ratio)=(Fluorescence intensity at 665 nm/Fluorescence intensity at 615 nm); inhibition rate=(ER positive-ER test compound)/(ER positive-ER negative)×100%, the IC50 value of compounds were calculated by standard parameter fitting software (GraphPad Prism 6.0).

MV4-11 (leukemia) cells = test: In vitro cell proliferation inhibition assay (CellTiter-Glo), MV4-11; type: cell-based, human; conditions: MV4-11 cells
Protocol: as §1, §2
MV-4-11 cells were cultured in IMDM medium (containing 20% FBS), each well of a 96-well culture plate was inoculated with about 10000 cells, and treated with different concentrations (0-10 μM) of compounds to be tested in triplex. Blank wells (containing medium only) and control wells (inoculated with cells but not treated with drug) were set. Cells were cultured for 120 hours, 40 μL Cell Titer-Glo solution was added to each well, incubated with shaking for 20 min in the dark, 100 μL solution was transferred from each well to a 96-well white plate, and the luminescence value was read by Biotek Synergy H1 multifunctional microplate reader. Inhibition rate (%)=100%×(control well−test well)/(control well−blank well)

[2] = In vitro liver microsomal stability assay, mouse; type: in vitro ADME; conditions: mouse liver microsomes, final concentration 2.0 nM, with or without NADPH, within 60 minutes; read-out: Mouse liver microsomes t1/2
Protocol: (§3) Experiments on the stability of the compound of the present disclosure in liver microsomes were performed. The compounds to be tested (final concentration: 2.0 nM) were co-incubated with human/mouse liver microsomes with or without NADPH, and the concentration of compounds in the incubation supernatant was detected within 60 minutes.

[3] = In vitro liver microsomal stability assay, human; type: in vitro ADME; conditions: human liver microsomes, final concentration 2.0 nM, with or without NADPH, within 60 minutes; read-out: Human liver microsomes t1/2
Protocol: as §3

[4] = In vivo pharmacokinetics assay in mice; conditions: mouse; male ICR mice, oral gavage 10 mg/kg, plasma
Protocol: The in vivo pharmacokinetics of the compounds was studied.
Male ICR mice (3 in each group) were orally administered by gavage with a dose of 10 mg/kg. Plasma samples were collected before (0 h) and after administration (0.25, 0.5, 1, 2, 4, 6, 8, 24 h), and the collected samples were analyzed by LC/MS and data were collected. The collected analytical data were used to calculate the relevant pharmacokinetic parameters by Analyst v1.6.2 (AB Applied Biosystems Company, USA).

Chain of ATR kinase (Q13535 whole entry): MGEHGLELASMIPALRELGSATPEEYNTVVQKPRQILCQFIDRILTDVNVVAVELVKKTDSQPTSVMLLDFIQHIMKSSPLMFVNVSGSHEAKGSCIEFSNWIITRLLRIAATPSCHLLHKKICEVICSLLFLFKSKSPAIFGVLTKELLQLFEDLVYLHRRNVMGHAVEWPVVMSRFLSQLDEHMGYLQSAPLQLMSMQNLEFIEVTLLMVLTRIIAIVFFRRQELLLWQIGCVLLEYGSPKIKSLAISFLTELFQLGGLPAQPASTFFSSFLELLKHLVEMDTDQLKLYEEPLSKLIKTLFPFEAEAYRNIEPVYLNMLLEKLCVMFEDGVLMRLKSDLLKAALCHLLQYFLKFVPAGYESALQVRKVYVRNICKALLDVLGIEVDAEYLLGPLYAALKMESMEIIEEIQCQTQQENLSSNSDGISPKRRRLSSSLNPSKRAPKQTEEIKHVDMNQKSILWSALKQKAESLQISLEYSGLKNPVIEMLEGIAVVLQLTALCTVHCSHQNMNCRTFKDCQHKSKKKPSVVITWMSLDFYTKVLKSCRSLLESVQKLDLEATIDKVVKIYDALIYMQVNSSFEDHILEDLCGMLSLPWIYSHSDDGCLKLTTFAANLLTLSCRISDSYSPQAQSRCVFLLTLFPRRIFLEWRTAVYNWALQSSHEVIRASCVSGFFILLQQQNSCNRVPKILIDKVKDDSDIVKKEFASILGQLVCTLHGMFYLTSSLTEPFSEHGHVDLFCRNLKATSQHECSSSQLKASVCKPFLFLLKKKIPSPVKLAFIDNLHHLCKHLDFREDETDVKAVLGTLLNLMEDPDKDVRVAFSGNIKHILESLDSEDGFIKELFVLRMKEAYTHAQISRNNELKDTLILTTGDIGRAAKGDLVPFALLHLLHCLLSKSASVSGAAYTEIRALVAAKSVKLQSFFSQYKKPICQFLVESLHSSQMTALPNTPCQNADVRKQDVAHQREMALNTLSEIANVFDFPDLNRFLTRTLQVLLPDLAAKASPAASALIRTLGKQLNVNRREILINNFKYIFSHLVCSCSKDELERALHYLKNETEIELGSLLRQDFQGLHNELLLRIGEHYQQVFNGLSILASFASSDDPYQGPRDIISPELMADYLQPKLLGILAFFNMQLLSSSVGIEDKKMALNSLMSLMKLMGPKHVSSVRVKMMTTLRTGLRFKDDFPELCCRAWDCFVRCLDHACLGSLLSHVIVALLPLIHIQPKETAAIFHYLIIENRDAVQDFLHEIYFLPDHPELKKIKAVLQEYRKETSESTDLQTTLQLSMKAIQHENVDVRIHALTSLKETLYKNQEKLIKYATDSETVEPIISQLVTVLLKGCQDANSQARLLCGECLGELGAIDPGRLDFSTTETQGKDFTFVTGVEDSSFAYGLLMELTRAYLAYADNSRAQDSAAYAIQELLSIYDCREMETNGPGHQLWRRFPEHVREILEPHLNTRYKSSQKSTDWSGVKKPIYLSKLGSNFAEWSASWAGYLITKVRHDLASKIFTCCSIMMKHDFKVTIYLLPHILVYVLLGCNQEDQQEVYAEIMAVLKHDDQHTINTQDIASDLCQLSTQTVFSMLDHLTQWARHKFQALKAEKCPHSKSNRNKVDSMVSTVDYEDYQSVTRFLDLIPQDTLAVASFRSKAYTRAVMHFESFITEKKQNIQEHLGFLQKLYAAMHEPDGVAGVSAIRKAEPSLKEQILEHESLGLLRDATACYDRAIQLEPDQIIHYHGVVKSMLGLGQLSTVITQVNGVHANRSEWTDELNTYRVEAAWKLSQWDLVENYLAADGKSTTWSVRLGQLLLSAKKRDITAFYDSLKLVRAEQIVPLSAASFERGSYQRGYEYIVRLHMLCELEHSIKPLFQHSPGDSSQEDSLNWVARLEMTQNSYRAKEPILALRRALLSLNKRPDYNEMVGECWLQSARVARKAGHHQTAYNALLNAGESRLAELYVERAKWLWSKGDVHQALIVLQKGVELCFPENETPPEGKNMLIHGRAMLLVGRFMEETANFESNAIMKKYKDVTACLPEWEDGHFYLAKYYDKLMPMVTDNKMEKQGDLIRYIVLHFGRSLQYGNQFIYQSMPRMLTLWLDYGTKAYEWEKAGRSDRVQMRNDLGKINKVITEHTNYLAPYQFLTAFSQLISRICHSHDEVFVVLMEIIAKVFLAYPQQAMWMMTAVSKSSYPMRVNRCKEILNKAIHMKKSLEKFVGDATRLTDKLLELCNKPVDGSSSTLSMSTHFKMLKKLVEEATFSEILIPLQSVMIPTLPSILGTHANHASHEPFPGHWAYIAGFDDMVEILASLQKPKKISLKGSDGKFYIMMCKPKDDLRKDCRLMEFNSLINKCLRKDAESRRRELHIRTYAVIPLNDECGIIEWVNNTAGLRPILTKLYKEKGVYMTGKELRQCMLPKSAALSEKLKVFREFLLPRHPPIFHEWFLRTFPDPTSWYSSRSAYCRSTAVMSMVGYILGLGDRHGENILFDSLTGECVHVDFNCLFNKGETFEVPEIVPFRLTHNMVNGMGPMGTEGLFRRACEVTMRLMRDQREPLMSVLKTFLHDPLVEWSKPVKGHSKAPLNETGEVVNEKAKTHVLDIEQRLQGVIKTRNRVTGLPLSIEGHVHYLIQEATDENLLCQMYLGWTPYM
Chain of ATR kinase (Q8WXE1 whole entry partner): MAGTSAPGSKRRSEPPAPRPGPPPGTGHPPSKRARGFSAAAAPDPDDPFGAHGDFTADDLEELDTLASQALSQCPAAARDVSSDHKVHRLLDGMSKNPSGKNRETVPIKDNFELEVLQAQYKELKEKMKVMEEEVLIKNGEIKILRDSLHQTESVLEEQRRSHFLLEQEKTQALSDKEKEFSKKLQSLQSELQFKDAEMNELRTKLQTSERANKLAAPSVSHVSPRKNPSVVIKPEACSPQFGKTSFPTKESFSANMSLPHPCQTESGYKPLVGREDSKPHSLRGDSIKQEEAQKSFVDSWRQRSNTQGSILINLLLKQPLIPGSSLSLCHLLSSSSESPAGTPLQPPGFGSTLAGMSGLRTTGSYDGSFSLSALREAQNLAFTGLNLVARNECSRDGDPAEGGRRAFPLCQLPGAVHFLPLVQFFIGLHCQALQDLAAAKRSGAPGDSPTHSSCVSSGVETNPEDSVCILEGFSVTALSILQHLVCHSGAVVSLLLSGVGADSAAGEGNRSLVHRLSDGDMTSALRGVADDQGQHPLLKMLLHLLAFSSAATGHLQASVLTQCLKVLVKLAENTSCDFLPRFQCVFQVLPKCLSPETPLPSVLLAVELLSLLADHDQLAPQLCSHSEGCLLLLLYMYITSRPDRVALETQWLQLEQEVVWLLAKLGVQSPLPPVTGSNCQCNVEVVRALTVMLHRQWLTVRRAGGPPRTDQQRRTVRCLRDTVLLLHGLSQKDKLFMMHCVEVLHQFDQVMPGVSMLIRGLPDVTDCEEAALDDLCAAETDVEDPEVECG

| Structure (SMILES) | IC50 ([1]; Homo sapiens) [nM] | IC50 (ATR kinase) [nM] | IC50 (MV4-11 (leukemia) cells; Homo sapiens, MV4-11, 120 h) [nM] | half-life at 2 nM [2] [h] | half-life at 2 nM [3] [h] | AUC [4] [ng·h/mL] | Cmax [4] [ng/mL] | Tmax [4] [h] | half-life [4] [h] | IC50 [1] [nM] | IC50 (MV4-11 (leukemia) cells; 120 hours) [nM] |
| --- | --- | --- | --- | --- | --- | --- | --- | --- | --- | --- | --- |
| Cc1nn(C2CCNCC2)c(C(F)(F)F)c1-c1cc(N2CCOC[C@H]2C)nc(-c2ccnc3[nH]ccc23)n1 [Compound D1] | 260 | 5 | 120 | 1.03 | 5.63 | – | – | – | – | – | – |
| Cc1nn(C2CCNCC2)c(C(F)(F)F)c1-c1cc(N2CCOC[C@H]2C)nc(-c2cccc3[nH]ccc23)n1 [Compound D17] | 230 | 1 | 140 | 2.83 | 5.05 | – | – | – | – | – | – |
| CNc1nc2ccccc2n1-c1nc(-c2c(C)nn(C3CCNCC3)c2C(F)(F)F)cc(N2CCOC[C@H]2C)n1 [Compound D24] | 120 | – | 80 | 1.83 | 3.38 | 5450 | 467 | 5.3 | 3.1 | – | – |
| Cc1nn(C2CCNCC2)c(C(F)(F)F)c1-c1cc(N2CCOC[C@H]2C)nc(-c2cc(F)cc3[nH]ccc23)n1 [Compound D28] | 280 | < 1 | 230 | – | – | 2160 | 199 | 4.7 | 3.9 | – | – |
| CNc1nc2ccccc2n1-c1nc(-c2c(C)nn(C3CCNCC3)c2C(F)(F)F)cc(C23CCOCC2C3)n1 (stereo not shown) [Compound D48] | – | 2 | – | – | – | – | – | – | – | 550 | 200 |
| Cc1nn(C2CCNCC2)c(C(F)(F)F)c1-c1cc(C23CCOCC2C3)nc(-c2cc(F)cc3[nH]ccc23)n1 (stereo not shown) [Compound D49] | – | 2 | – | – | – | – | – | – | – | 500 | 550 |
| CNc1nc2cc(F)ccc2n1-c1nc(-c2c(C)nn(CC3(C)COC3)c2C(F)(F)F)cc(N2CCOC[C@H]2C)n1 [Compound D51] | – | 32 | – | – | – | – | – | – | – | 680 | 660 |
| Cc1nn(C[C@@H]2CCCN2)c(C(F)(F)F)c1-c1cc(N2CCOC[C@H]2C)nc(-c2cc(F)cc3[nH]ccc23)n1 [Compound D52] | – | 2 | – | – | – | – | – | – | – | 370 | 590 |
| Cc1nn(C[C@H]2CCCN2)c(C(F)(F)F)c1-c1cc(N2CCOC[C@H]2C)nc(-c2cc(F)cc3[nH]ccc23)n1 [Compound D53] | – | 4 | – | – | – | – | – | – | – | 710 | 620 |
| Cc1nn([C@H]2CCNCC2(F)F)c(C)c1-c1cc(N2CCOC[C@H]2C)nc(-c2cc(F)cc3[nH]ccc23)n1 [Compound D54a] | 180 | 4 | 90 | – | – | – | – | – | – | – | – |
| Cc1nn([C@@H]2CCNCC2(F)F)c(C)c1-c1cc(N2CCOC[C@H]2C)nc(-c2cc(F)cc3[nH]ccc23)n1 [Compound D54b] | 440 | 13 | 260 | – | – | – | – | – | – | – | – |
| Cc1nn(C(=O)N2CCNCC2)c(C)c1-c1cc(N2CCOC[C@H]2C)nc(-c2cc(F)cc3[nH]ccc23)n1 [Compound D55] | – | 3 | – | – | – | – | – | – | – | 190 | 220 |
| CNc1nc2ccccc2n1-c1nc(-c2c(C(F)(F)F)nn(C3CCNCC3)c2C)cc(N2CCOC[C@H]2C)n1 [Compound D56] | – | 9 | – | – | – | – | – | – | – | 440 | 320 |
| Cc1nn(C2CCNCC2(F)F)c(C)c1-c1cc(N2CCOC[C@H]2C)nc(-c2ccnc3[nH]ccc23)n1 (stereo partly shown) [Compound D57] | – | 16 | – | – | – | – | – | – | – | 410 | 220 |
